Test results published in patent US9993494B2, “Compositions and methods for treating fibrotic disease” (eFFECTOR Therapeutics, Inc., priority 2014, dated 2018).

Test system: normal human lung fibroblasts
Test: Ribosomal profiling: translational efficiency in TGFβ-treated fibroblasts
Type: cell-based
Conditions: TGFβ-treated fibroblasts
Protocol: Ribosomal profiling allows for measurement of changes in transcription and translation on a genome-wide basis accompanying TGFβ-dependent transformation of fibroblasts to myofibroblasts. Ribosomal profiles of the TGFβ-treated fibroblasts from Example 1 (about 6×10^6 cells/10 cm plate) were prepared and analyzed for changes in translational efficiencies with respect to potential disease-associated cellular changes accompanying this TGFβ-induced transformation.
Briefly, cells were washed with cold PBS supplemented with cycloheximide and lysed with 1× mammalian cell lysis buffer for 10 minutes on ice. Lysates were clarified by centrifugation for 10 minutes at 14,000 rpm and supernatants were collected. Cell lysates were processed to generate ribosomal protected fragments and total mRNA according to the instructions included with the ARTseq Ribosome Profiling Kit (Illumina, San Diego, Calif.). Sequencing of total RNA (RNA) and of ribosome-protected fragments of RNA (RPF) was carried out using RNA-Seq methodology according to the manufacturer's instructions (Illumina). To analyze the ribosomal profiles, RNA-Seq reads were processed with tools from the FASTX-Toolkit (fastq_quality_trimmer, fastx_clipper and fastx_trimmer). Unprocessed and processed reads were evaluated for a variety of quality measures using FastQC, and processed reads were mapped to the human genome using TopHat (see, e.g., Trapnell et al., Bioinformatics 25:1105, 2009). Gene-by-gene assessment of the number of fragments strictly and uniquely mapping to the coding region of each gene was conducted using HTSeq-count, a component of the HTSeq package. […] Genes with low counts in either RPF or RNA were excluded from differential analyses. Pathway and network analyses of differential data were conducted using Ingenuity Pathway Analysis (IPA).

Compound: COC(=O)[C@H]1[C@@H](O)[C@@]2(O)c3c(OC)cc(O[C@@H]4O[C@@H]([C@H](O)CO)CO[C@H]4OC)cc3O[C@@]2(c2ccc(OC)cc2)[C@@H]1c1ccccc1 [Silvestrol]
- effect in renormalizing the translational profile of the gene (gene RPS6KA5 (ENSG00000100784)): + (+ = 0.9 to 1.5)
- effect in renormalizing the translational profile of the gene (gene RPS7 (ENSG00000171863)): − (− = <0.9)
- effect in renormalizing the translational profile of the gene (gene RPS8 (ENSG00000142937)): − (− = <0.9)
- effect in renormalizing the translational profile of the gene (gene RPS9 (ENSG00000170889)): − (− = <0.9)
- effect in renormalizing the translational profile of the gene (gene RPS10 (ENSG00000124614)): − (− = <0.9)
- effect in renormalizing the translational profile of the gene (gene RPS11 (ENSG00000142534)): − (− = <0.9)
- effect in renormalizing the translational profile of the gene (gene RPS12 (ENSG00000112306)): − (− = <0.9)
- effect in renormalizing the translational profile of the gene (gene RPS13 (ENSG00000110700)): − (− = <0.9)
- effect in renormalizing the translational profile of the gene (gene RPS14 (ENSG00000164587)): − (− = <0.9)
- effect in renormalizing the translational profile of the gene (gene RPS15 (ENSG00000115268)): − (− = <0.9)
- effect in renormalizing the translational profile of the gene (gene RPS15A (ENSG00000134419)): − (− = <0.9)
- effect in renormalizing the translational profile of the gene (gene RPS16 (ENSG00000105193)): − (− = <0.9)
- effect in renormalizing the translational profile of the gene (gene RPS18 (ENSG00000231500)): − (− = <0.9)
- effect in renormalizing the translational profile of the gene (gene RPS19 (ENSG00000105372)): − (− = <0.9)
- effect in renormalizing the translational profile of the gene (gene RPS20 (ENSG00000008988)): − (− = <0.9)
- effect in renormalizing the translational profile of the gene (gene RPS21 (ENSG00000171858)): − (− = <0.9)
- effect in renormalizing the translational profile of the gene (gene RPS23 (ENSG00000186468)): − (− = <0.9)
- effect in renormalizing the translational profile of the gene (gene RPS24 (ENSG00000138326)): − (− = <0.9)
- effect in renormalizing the translational profile of the gene (gene RPS25 (ENSG00000118181)): − (− = <0.9)
- effect in renormalizing the translational profile of the gene (gene RPS26 (ENSG00000197728)): − (− = <0.9)
- effect in renormalizing the translational profile of the gene (gene RPS27 (ENSG00000177954)): − (− = <0.9)
- effect in renormalizing the translational profile of the gene (gene RPS27A (ENSG00000143947)): − (− = <0.9)
- effect in renormalizing the translational profile of the gene (gene RPS28 (ENSG00000233927)): − (− = <0.9)
- effect in renormalizing the translational profile of the gene (gene RPS29 (ENSG00000213741)): − (− = <0.9)
- effect in renormalizing the translational profile of the gene (gene RPSA (ENSG00000168028)): − (− = <0.9)
- effect in renormalizing the translational profile of the gene (gene RTN2 (ENSG00000125744)): − (− = <0.9)
- effect in renormalizing the translational profile of the gene (gene SEMA3A (ENSG00000075213)): − (− = <0.9)
- effect in renormalizing the translational profile of the gene (gene SGIP1 (ENSG00000118473)): + (+ = 0.9 to 1.5)
- effect in renormalizing the translational profile of the gene (gene SHC3 (ENSG00000148082)): − (− = <0.9)
- effect in renormalizing the translational profile of the gene (gene SLC2A12 (ENSG00000146411)): ++ (++ = 1.5 to 2.0)
- effect in renormalizing the translational profile of the gene (gene SLC7A7 (ENSG00000155465)): − (− = <0.9)
- effect in renormalizing the translational profile of the gene (gene SLC15A3 (ENSG00000110446)): − (− = <0.9)
- effect in renormalizing the translational profile of the gene (gene SLC25A6 (ENSG00000169100)): − (− = <0.9)
- effect in renormalizing the translational profile of the gene (gene SLC40A1 (ENSG00000138449)): − (− = <0.9)
- effect in renormalizing the translational profile of the gene (gene SMO (ENSG00000128602)): − (− = <0.9)
- effect in renormalizing the translational profile of the gene (gene SNRPA (ENSG00000077312)): + (+ = 0.9 to 1.5)
- effect in renormalizing the translational profile of the gene (gene SOX5 (ENSG00000134532)): − (− = <0.9)
- effect in renormalizing the translational profile of the gene (gene SOX6 (ENSG00000110693)): − (− = <0.9)
- effect in renormalizing the translational profile of the gene (gene SPATA6 (ENSG00000132122)): − (− = <0.9)
- effect in renormalizing the translational profile of the gene (gene STAMBPL1 (ENSG00000138134)): + (+ = 0.9 to 1.5)
- effect in renormalizing the translational profile of the gene (gene STS (ENSG00000101846)): − (− = <0.9)
- effect in renormalizing the translational profile of the gene (gene SYNE2 (ENSG00000054654)): − (− = <0.9)
- effect in renormalizing the translational profile of the gene (gene TAF1D (ENSG00000166012)): − (− = <0.9)
- effect in renormalizing the translational profile of the gene (gene TDG (ENSG00000139372)): − (− = <0.9)
- effect in renormalizing the translational profile of the gene (gene TEN1 (ENSG00000257949)): + (+ = 0.9 to 1.5)
- effect in renormalizing the translational profile of the gene (gene TET2 (ENSG00000168769)): − (− = <0.9)
- effect in renormalizing the translational profile of the gene (gene TET3 (ENSG00000187605)): − (− = <0.9)
- effect in renormalizing the translational profile of the gene (gene TGFBI (ENSG00000120708)): − (− = <0.9)
- effect in renormalizing the translational profile of the gene (gene THBS3 (ENSG00000169231)): + (+ = 0.9 to 1.5)
- effect in renormalizing the translational profile of the gene (gene THG1L (ENSG00000113272)): − (− = <0.9)
- effect in renormalizing the translational profile of the gene (gene TIMM9 (ENSG00000100575)): − (− = <0.9)
- effect in renormalizing the translational profile of the gene (gene TKT (ENSG00000163931)): − (− = <0.9)
- effect in renormalizing the translational profile of the gene (gene TMTC1 (ENSG00000133687)): +++ (+++ = >2.0)
- effect in renormalizing the translational profile of the gene (gene TOMM7 (ENSG00000196683)): − (− = <0.9)
- effect in renormalizing the translational profile of the gene (gene TOP2A (ENSG00000131747)): +++ (+++ = >2.0)
- effect in renormalizing the translational profile of the gene (gene TPGS1 (ENSG00000141933)): − (− = <0.9)
- effect in renormalizing the translational profile of the gene (gene TPM2 (ENSG00000198467)): − (− = <0.9)
- effect in renormalizing the translational profile of the gene (gene TPT1 (ENSG00000133112)): − (− = <0.9)
- effect in renormalizing the translational profile of the gene (gene TRERF1 (ENSG00000124496)): + (+ = 0.9 to 1.5)
- effect in renormalizing the translational profile of the gene (gene UBA52 (ENSG00000221983)): − (− = <0.9)
- effect in renormalizing the translational profile of the gene (gene UQCRB (ENSG00000156467)): − (− = <0.9)
- effect in renormalizing the translational profile of the gene (gene UTRN (ENSG00000152818)): − (− = <0.9)
- effect in renormalizing the translational profile of the gene (gene VIM (ENSG00000026025)): − (− = <0.9)
- effect in renormalizing the translational profile of the gene (gene ZNF581 (ENSG00000171425)): − (− = <0.9)
- effect in renormalizing the translational profile of the gene (gene ZNF608 (ENSG00000168916)): − (− = <0.9)
